What was measured:
[1] = Plasma concentration in athymic nude mouse bearing human Caco2 cells at 30 mg/kg, po measured after 4 hrs; assay type: ADME, organism-based, Caco-2; design: dose 30 mg/kg, route oral
Caco-2 [2] = assay: Antitumor activity against human Caco2 cells xenografted in athymic nude mouse assessed as tumor growth inhibition at 30 mg/kg, po BID administered for 14 days; assay type: functional; details: Caco-2, 336 h, read-out: GI
[3] = target: T1, Cell division cycle 7-related protein kinase (Homo sapiens, UniProt O00311); assay: Inhibition of CDC7 in human Caco2 cells assessed as inhibition of MCM2 phosphorylation at Ser53 after 4 hrs; assay type: cell-based, Caco-2
T1 sequence (O00311 whole entry): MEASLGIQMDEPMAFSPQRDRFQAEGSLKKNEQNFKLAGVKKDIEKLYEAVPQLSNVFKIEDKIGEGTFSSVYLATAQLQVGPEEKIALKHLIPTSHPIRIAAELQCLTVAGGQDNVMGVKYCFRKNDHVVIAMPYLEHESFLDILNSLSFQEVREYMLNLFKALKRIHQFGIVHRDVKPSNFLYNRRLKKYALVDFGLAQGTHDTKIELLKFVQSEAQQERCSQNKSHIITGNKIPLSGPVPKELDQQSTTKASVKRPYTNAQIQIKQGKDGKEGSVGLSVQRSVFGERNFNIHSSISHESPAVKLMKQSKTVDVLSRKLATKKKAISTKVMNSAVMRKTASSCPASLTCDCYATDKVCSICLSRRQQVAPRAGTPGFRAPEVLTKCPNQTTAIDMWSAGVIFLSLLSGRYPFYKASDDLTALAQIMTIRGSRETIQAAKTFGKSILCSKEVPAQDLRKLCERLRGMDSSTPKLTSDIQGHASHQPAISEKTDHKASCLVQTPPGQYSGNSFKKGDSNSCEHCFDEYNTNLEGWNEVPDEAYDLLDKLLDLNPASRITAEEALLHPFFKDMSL

[4] = AUC in rat at 3 mg/kg, po; assay type: ADME, organism-based; design: dose 3 mg/kg, route oral; details: plasma
Caco-2 [5] = assay: Antitumor activity against human Caco2 cells xenografted in athymic nude mouse assessed as tumor regression at 30 mg/kg, po BID administered for 14 days; assay type: functional
Mus musculus [6] = assay: Toxicity in athymic nude mouse bearing human Caco2 cells assessed as decrease in body weight at 3 mg/kg, po QD administered for 14 days; assay type: organism-based, Caco-2; design: dose 3 mg/kg, route oral; scale not given: the % may be the effect or the level left; details: in vivo, 336 h
Caco-2 [7] = assay: Antiproliferative activity against human Caco2 cells assessed as decrease in cell viability after 3 days by Cell Titer-Glo assay; assay type: functional, cell-based; details: Caco-2, 72 h
Cytochrome P450 2C9 = Cytochrome P450 2C9 (Homo sapiens, UniProt P11712); assay: Inhibition of CYP2C9; assay type: ADME
Cytochrome P450 2C9, sequence (P11712 whole entry): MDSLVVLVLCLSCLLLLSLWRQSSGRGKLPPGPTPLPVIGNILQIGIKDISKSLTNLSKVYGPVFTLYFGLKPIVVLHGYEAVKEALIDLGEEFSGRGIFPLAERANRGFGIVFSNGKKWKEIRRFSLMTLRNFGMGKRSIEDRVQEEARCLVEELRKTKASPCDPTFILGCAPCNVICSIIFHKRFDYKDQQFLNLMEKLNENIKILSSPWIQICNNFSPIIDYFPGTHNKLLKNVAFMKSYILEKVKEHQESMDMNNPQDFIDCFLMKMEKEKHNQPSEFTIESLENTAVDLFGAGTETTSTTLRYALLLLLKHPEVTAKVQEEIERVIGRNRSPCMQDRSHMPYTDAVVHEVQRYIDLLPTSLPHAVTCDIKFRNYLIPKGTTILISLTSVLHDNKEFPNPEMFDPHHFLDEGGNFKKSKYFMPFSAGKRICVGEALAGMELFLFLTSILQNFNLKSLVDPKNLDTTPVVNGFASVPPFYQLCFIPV

[8] = target: Serine/threonine-protein kinase pim-1 (Homo sapiens, UniProt P11309); assay: Inhibition of N-terminus His-tagged human PIM1 expressed in Escherichia coli using AKRRRLSA as substrate after 1 to 2 hrs by chemiluminescence assay
Serine/threonine-protein kinase pim-1, sequence (P11309 whole entry): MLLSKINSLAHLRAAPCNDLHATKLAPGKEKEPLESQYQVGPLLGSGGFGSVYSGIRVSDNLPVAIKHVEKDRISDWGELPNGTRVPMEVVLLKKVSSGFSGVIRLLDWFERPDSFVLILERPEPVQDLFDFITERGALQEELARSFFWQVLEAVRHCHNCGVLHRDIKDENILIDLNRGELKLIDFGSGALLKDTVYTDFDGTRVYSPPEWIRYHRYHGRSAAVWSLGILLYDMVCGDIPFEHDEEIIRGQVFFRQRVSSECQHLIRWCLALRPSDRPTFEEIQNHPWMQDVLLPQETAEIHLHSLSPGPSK

Mus musculus [9] = assay: Toxicity in athymic nude mouse bearing human Caco2 cells assessed as decrease in body weight at 30 mg/kg, po BID administered for 14 days; assay type: organism-based, Caco-2; design: dose 30 mg/kg, route oral; scale not given: the % may be the effect or the level left; details: in vivo, 336 h
[10] = Plasma concentration in mouse at 100 mg/kg, po measured after 1 hr; assay type: ADME, organism-based; design: dose 100 mg/kg, route oral
[11] = Drug uptake in tumor of Caco2 cells xenografted athymic nude mouse at 3 mg/kg, po measured after 4 hrs; assay type: ADME, organism-based, Neoplasm, Caco-2; design: dose 3 mg/kg, route oral; details: read-out: Drug uptake
Mus musculus [12] = assay: Toxicity in athymic nude mouse bearing human Caco2 cells assessed as decrease in body weight at 100 mg/kg, po Q2D administered for 14 days; assay type: organism-based, Caco-2; design: dose 100 mg/kg, route oral; scale not given: the % may be the effect or the level left; details: in vivo, 336 h
Caco-2 [13] = assay: Antiproliferative activity against human Caco2 cells after 3 days by BrdU incorporation assay; assay type: functional, cell-based; details: Caco-2, 72 h
[14] = Half life in rat; assay type: ADME, organism-based; details: in vivo
[15] = Clearance in rat; assay type: ADME, organism-based; details: in vivo
Mus musculus [16] = assay: Inhibition of CDC7-mediated MCM2 phosphorylation at Ser40/41 in human Caco2 cells xenografted in athymic nude mouse at 3 mg/kg, po after 4 hrs by Western blot analysis; assay type: functional; details: Caco-2, 4 h
[17] = Cmax in rat at 3 mg/kg, po; assay type: ADME, organism-based; design: dose 3 mg/kg, route oral; details: in vivo
[18] = Drug uptake in tumor of Caco2 cells xenografted athymic nude mouse at 30 mg/kg, po measured after 4 hrs; assay type: ADME, organism-based, Neoplasm, Caco-2; design: dose 30 mg/kg, route oral; details: read-out: Drug uptake
[19] = Oral bioavailability in rat at 3 mg/kg; assay type: ADME, organism-based; details: in vivo
[20] = Plasma concentration in mouse at 100 mg/kg, po measured after 4 hrs; assay type: ADME, organism-based; design: dose 100 mg/kg, route oral
Caco-2 [21] = assay: Antitumor activity against human Caco2 cells xenografted in athymic nude mouse assessed as tumor growth inhibition at 10 mg/kg, po QD administered for 14 days; assay type: functional; details: Caco-2, 336 h, read-out: GI
Mus musculus [22] = assay: Toxicity in athymic nude mouse bearing human Caco2 cells assessed as decrease in body weight at 10 mg/kg, po QD administered for 14 days; assay type: organism-based, Caco-2; design: dose 10 mg/kg, route oral; scale not given: the % may be the effect or the level left; details: in vivo, 336 h
[23] = target: T1, Cell division cycle 7-related protein kinase; assay: Inhibition of N-terminus Myc-tagged human CDC7 expressed in Escherichia coli by chemiluminescence assay in presence of ATP
Mus musculus [24] = assay: Inhibition of CDC7-mediated MCM2 phosphorylation at Ser40/41 in human Caco2 cells xenografted in po dosed athymic nude mouse by after 4 hrs Western blot analysis; assay type: functional; details: Caco-2, po
Caco-2 [25] = assay: Induction of apoptosis in human Caco2 cells assessed as increase in caspase 3/7 activity; assay type: functional, cell-based
Caco-2 [26] = assay: Antitumor activity against human Caco2 cells xenografted in athymic nude mouse assessed as tumor growth inhibition at 100 mg/kg, po Q2D administered for 14 days; assay type: functional; details: Caco-2, 336 h, read-out: GI
[27] = Volume of distribution at steady state in rat; assay type: ADME, organism-based; details: in vivo, read-out: Vdss
Mus musculus [28] = assay: Toxicity in athymic nude mouse bearing human Caco2 cells assessed as decrease in body weight at 100 mg/kg, po QD administered for 14 days; assay type: organism-based, Caco-2; design: dose 100 mg/kg, route oral; scale not given: the % may be the effect or the level left; details: in vivo, 336 h
Cytochrome P450 1A2 = target: T2, Cytochrome P450 1A2 (Homo sapiens, UniProt P05177); assay: Inhibition of CYP1A2; assay type: ADME
T2 sequence (P05177 whole entry): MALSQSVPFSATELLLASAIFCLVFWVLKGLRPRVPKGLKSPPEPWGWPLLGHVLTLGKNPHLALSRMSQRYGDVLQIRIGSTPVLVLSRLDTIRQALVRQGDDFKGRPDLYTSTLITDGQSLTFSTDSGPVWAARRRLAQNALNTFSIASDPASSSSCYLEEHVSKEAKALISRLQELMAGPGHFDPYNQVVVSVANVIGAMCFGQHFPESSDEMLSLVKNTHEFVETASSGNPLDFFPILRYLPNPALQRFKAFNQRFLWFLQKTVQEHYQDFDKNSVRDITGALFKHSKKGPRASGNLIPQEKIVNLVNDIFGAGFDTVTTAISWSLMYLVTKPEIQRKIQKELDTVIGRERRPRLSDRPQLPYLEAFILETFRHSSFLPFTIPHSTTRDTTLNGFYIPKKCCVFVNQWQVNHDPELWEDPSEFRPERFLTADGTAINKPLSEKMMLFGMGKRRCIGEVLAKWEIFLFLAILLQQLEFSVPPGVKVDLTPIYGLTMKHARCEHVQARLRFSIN

Caco-2 [29] = assay: Antiproliferative activity against human Caco2 cells assessed as inhibition of anchorage-independent growth in soft agar; assay type: functional, cell-based
Caco-2 [30] = assay: Antitumor activity against human Caco2 cells xenografted in athymic nude mouse assessed as tumor growth inhibition at 100 mg/kg, po QD administered for 14 days; assay type: functional; details: Caco-2, 336 h, read-out: GI
[31] = target: T1, Cell division cycle 7-related protein kinase; assay: Inhibition of CDC7 in human MDA-MB-231T cells assessed as inhibition of MCM2 phosphorylation at Ser53 after 4 hrs; assay type: cell-based
Cytochrome P450 3A4 = Cytochrome P450 3A4 (Homo sapiens, UniProt P08684); assay: Inhibition of CYP3A4; assay type: ADME
Cytochrome P450 3A4, sequence (P08684 whole entry): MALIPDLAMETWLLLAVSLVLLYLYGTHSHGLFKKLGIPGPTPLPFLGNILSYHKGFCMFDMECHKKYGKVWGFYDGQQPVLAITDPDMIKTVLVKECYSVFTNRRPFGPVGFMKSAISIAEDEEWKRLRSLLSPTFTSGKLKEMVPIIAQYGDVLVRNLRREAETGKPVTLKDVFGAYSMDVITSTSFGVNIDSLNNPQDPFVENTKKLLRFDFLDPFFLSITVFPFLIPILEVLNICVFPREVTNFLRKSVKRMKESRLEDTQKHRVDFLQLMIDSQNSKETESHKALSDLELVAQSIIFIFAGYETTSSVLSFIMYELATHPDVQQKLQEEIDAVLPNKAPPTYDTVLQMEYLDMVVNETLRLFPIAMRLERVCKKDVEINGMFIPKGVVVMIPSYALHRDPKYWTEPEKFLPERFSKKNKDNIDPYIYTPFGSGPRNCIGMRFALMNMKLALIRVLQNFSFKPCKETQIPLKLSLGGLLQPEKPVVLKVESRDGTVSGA

[32] = Drug uptake in tumor of Caco2 cells xenografted athymic nude mouse at 10 mg/kg, po measured after 4 hrs; assay type: ADME, organism-based, Neoplasm, Caco-2; design: dose 10 mg/kg, route oral; details: read-out: Drug uptake
[33] = target: Casein kinase II alpha/beta (Homo sapiens, UniProt P68400); assay: Inhibition of human tertrameric CK2alphabeta holoenzyme using casein as substrate after 1 to 2 hrs by chemiluminescence assay in presence of 2 uM ATP; assay type: protein-complex assay
Casein kinase II alpha/beta, sequence (P67870 whole entry): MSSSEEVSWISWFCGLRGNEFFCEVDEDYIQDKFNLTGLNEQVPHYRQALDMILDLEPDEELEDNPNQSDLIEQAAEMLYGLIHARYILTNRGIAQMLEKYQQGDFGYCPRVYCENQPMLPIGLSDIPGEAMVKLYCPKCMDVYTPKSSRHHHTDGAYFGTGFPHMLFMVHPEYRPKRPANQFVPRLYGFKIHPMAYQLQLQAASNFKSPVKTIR
Casein kinase II alpha/beta, sequence (P68400 whole entry): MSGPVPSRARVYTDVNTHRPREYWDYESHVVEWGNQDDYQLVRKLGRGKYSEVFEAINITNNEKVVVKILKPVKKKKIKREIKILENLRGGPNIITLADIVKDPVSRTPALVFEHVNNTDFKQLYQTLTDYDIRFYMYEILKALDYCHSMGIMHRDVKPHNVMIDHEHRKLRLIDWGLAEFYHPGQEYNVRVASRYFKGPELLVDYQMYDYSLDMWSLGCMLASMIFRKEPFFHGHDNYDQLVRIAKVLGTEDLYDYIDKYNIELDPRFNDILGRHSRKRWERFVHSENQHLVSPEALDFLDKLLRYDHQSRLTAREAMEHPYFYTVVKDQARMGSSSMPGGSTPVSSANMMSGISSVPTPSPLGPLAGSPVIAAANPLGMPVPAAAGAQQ

Caco-2 [34] = assay: Antitumor activity against human Caco2 cells xenografted in athymic nude mouse assessed as tumor regression at 100 mg/kg, po QD administered for 14 days; assay type: functional
Cytochrome P450 2D6 = Cytochrome P450 2D6 (Homo sapiens, UniProt P10635); assay: Inhibition of CYP2D6; assay type: ADME
Cytochrome P450 2D6, sequence (P10635 whole entry): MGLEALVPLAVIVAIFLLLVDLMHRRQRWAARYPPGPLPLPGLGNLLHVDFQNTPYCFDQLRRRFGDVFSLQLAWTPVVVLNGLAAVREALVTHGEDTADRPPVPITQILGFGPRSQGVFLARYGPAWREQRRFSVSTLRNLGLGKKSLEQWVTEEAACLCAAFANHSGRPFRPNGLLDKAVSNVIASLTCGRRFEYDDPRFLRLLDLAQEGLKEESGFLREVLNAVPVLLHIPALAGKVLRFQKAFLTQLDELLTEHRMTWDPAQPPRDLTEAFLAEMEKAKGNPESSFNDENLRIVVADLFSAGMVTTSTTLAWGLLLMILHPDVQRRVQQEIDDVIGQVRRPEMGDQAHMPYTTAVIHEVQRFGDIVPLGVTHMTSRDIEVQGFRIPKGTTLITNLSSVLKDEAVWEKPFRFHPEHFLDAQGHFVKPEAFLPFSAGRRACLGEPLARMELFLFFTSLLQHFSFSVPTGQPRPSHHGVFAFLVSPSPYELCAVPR

Caco-2 [35] = assay: Antitumor activity against human Caco2 cells xenografted in athymic nude mouse assessed as tumor growth inhibition at 3 mg/kg, po QD administered for 14 days; assay type: functional; details: Caco-2, 336 h, read-out: GI
[36] = Plasma concentration in athymic nude mouse bearing human Caco2 cells at 3 mg/kg, po measured after 4 hrs; assay type: ADME, organism-based, Caco-2; design: dose 3 mg/kg, route oral
Mus musculus [37] = assay: Toxicity in athymic nude mouse bearing human Caco2 cells assessed as decrease in body weight at 30 mg/kg, po QD administered for 14 days; assay type: organism-based, Caco-2; design: dose 30 mg/kg, route oral; scale not given: the % may be the effect or the level left; details: in vivo, 336 h
[38] = Drug uptake in tumor of Caco2 cells xenografted athymic nude mouse at 100 mg/kg, po measured after 4 hrs; assay type: ADME, organism-based, Neoplasm, Caco-2; design: dose 100 mg/kg, route oral; details: read-out: Drug uptake
Cytochrome P450 2C19 = Cytochrome P450 2C19 (Homo sapiens, UniProt P33261); assay: Inhibition of CYP2C19; assay type: ADME
Cytochrome P450 2C19, sequence (P33261 whole entry): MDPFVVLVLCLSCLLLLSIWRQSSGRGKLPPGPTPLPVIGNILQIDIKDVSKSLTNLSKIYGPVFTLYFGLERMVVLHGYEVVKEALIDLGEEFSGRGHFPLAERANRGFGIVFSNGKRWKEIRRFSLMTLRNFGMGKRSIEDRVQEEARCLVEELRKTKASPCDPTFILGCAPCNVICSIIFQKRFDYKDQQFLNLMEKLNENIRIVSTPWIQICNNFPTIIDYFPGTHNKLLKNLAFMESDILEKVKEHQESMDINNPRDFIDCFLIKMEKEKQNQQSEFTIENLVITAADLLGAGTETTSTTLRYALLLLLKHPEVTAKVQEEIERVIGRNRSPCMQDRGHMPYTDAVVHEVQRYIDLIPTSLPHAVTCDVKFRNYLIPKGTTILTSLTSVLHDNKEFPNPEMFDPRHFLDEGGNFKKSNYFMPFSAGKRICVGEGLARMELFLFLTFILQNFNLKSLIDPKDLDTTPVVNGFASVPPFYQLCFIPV

Caco-2 [39] = assay: Antitumor activity against human Caco2 cells xenografted in athymic nude mouse assessed as tumor growth inhibition at 30 mg/kg, po QD administered for 14 days; assay type: functional; details: Caco-2, 336 h, read-out: GI
Caco-2 [40] = assay: Antitumor activity against human Caco2 cells xenografted in athymic nude mouse assessed as tumor regression at 100 mg/kg, po Q2D administered for 14 days; assay type: functional
[41] = Plasma concentration in athymic nude mouse bearing human Caco2 cells at 100 mg/kg, po measured after 4 hrs; assay type: ADME, organism-based, Caco-2; design: dose 100 mg/kg, route oral
[42] = Plasma concentration in athymic nude mouse bearing human Caco2 cells at 10 mg/kg, po measured after 4 hrs; assay type: ADME, organism-based, Caco-2; design: dose 10 mg/kg, route oral

## O=c1[nH]c([C@@H]2CCCN2)nc2c1oc1ccc(Cl)cc12
[1]
  concentration at 4 h: 82.2 µM
Caco-2 [2]
  inhibition in vivo at 30 mg/kg: > 100%
[3]
  IC50: 140 nM
[4]
  AUC: 75 µM·h
Caco-2 [5]
  Activity: 32%
Mus musculus [6]
  Activity: 0.5%
Caco-2 [7]
  IC50: 2140 nM
Cytochrome P450 2C9
  IC50: > 50000 nM
[8]
  IC50: 42 nM
Mus musculus [9]
  Activity: 6.4%
[10]
  concentration at 1 h: 141 µM
[11]
  concentration at 4 h: 3.2 µM
Mus musculus [12]
  Activity: 4.5%
Caco-2 [13]
  IC50: 2680 nM
[14]
  half-life: 2.32 h
[15]
  clearance: 1.95 mL/min/kg
Mus musculus [16]
  inhibition in vivo at 3 mg/kg: 70%
[17]
  Cmax: 8.61 µM
[18]
  concentration at 4 h: 32.1 µM
[19]
  bioavailability: 95%
[20]
  concentration at 4 h: 81 µM
Caco-2 [21]
  inhibition in vivo at 10 mg/kg: 36%
Mus musculus [22]
  Activity: 3.4%
[23]
  IC50: 3.4 nM
Mus musculus [24]
  ED50: < 3 mg/kg
Caco-2 [25]
  EC50: 2290 nM
Caco-2 [26]
  inhibition in vivo at 100 mg/kg: > 100%
[27]
  Vd: 0.55 L/kg
Mus musculus [28]
  Activity: 4.7%
Cytochrome P450 1A2
  IC50: 6900 nM
Caco-2 [29]
  IC50: 715 nM
Caco-2 [30]
  inhibition in vivo at 100 mg/kg: > 100%
[31]
  IC50: 118 nM
Cytochrome P450 3A4
  IC50: > 50000 nM
[32]
  concentration at 4 h: 13.1 µM
[33]
  IC50: 215 nM
Caco-2 [34]
  Activity: 70%
Cytochrome P450 2D6
  IC50: > 50000 nM
Caco-2 [35]
  inhibition in vivo at 3 mg/kg: 8.7%
[36]
  concentration at 4 h: 11 µM
Mus musculus [37]
  Activity: 8.3%
[38]
  concentration at 4 h: 71.4 µM
Cytochrome P450 2C19
  IC50: > 50000 nM
Caco-2 [39]
  inhibition in vivo at 30 mg/kg: 83%
Caco-2 [40]
  Activity: 21%
[41]
  concentration at 4 h: 186 µM
[42]
  concentration at 4 h: 40.1 µM
